# Patent US20080161254A1, “HCV INHIBITORS” (ViroBay, Inc., priority 2007, published 2008)
# pIC50: −log10 of the molar value.
# Tested on: HCV replication (HCV replicon-containing Huh7/Clone A cells)
# Experiment: HCV replicon assay
# Format: cell-based
# Conditions: Hepatitis C virus, Huh-7, 48 hours incubation, HCV replicon RNA by RT-qPCR normalized to total RNA, read-out: IC50, inhibition of HCV replication
# Text: The HCV replicon assay is a cell-culture system that mimics in vivo HCV replication and provides a system to study HCV replication in vitro. It was created by transfecting cloned viral RNA derived from a consensus HCV genomic sequence into human Huh7 hepatoma cells that are semi-permissive for viral RNA production (Lohmann V., Korner F., Koch J.-0., Herian U., Theilmann L. and Bartenschlager R. (1999). Replication of subgenomic Hepatitis C virus RNAs in a hepatoma cell line. Science 285, 110-113 and Blight K. J., Kolykhalov A. A. and Rice C. M. (2000). Efficient initiation of HCV RNA Replication in cell culture. Science 290, […]). These transfected cell lines contain a subgenomic HCV RNA genome that includes (1) the HCV 5′NTR fused to 12 amino acids of the capsid coding region, (2) the neomycin phosphotransferase gene (Neo) as a selectable marker, (3) the internal ribosome entry site (IRES) from encephalomyocarditis virus (EMCV) that directs translation of HCV non-structural proteins (variously NS2 or NS3 to NS5B), and (4) the 3′ NTR. Replicon-containing cells autonomously and persistently replicate HCV RNA that can be measured quantitatively by real-time qPCR. Therefore, the replicon system facilitates quantitative assessment of anti-viral activity by monitoring changes in HCV RNA replication in a cell-based assay.
# HCV replicon-containing cells (Huh7/Clone A) were routinely maintained in Clone A growth medium (DMEM medium [Invitrogen], supplemented with 10% Fetal Bovine Serum, 1% Non Essential Amino Acids and 1 g/L G418). […]
# Total RNA eluted in 130 μl of RNase-free dH2O was quantitated by the RiboGreen Assay according to the supplier's protocol (Molecular Probe). […] RNA samples in the black microplate were mixed with 95 μl of diluted RiboGreen reagent (1:250 dilution in TE buffer) and sample fluorescence was measured using a fluorescence microplate reader at standard fluorescein wavelengths (excitation ˜480 nm, emission ˜520 nm). […]
# TaqMan quantitative PCR(RT-qPCR) was used to quantitate the amount of HCV replicon RNA in each sample. […]
row,Compound,pIC50
1,"CCC[C@H](NC(=O)[C@@H]1C[C@@H](Oc2nc(-c3ccccn3)nc3ccsc23)CN1C(=O)[C@@H](NC(=O)NC(C)(C)C)C(C)(C)C)C(=O)C(=O)NC1CC1 [Example 7, (2S,4R)-1-((S)-2-(3-tert-butylureido)-3,3-dimethylbutanoyl)-N—((S)-1-(cyclopropylamino)-1,2-dioxohexan-3-yl)-4-(2-(pyridin-2-yl)thieno[3,2-d]pyrimidin-4-yloxy)pyrrolidine-2-carboxamide]",> 6.00
2,"CCC[C@H](NC(=O)[C@@H]1C[C@@H](Oc2nc(-c3ccccn3)nc3sccc23)CN1C(=O)[C@@H](NC(=O)NC(C)(C)C)C(C)(C)C)C(=O)C(=O)NC1CC1 [Example 6, (2S,4R)-1-((S)-2-(3-tert-butylureido)-3,3-dimethylbutanoyl)-N—((S)-1-(cyclopropylamino)-1,2-dioxohexan-3-yl)-4-(2-(pyridin-2-yl)thieno[2,3-d]pyrimidin-4-yloxy)pyrrolidine-2-carboxamide]",> 6.00
3,"CCC[C@H](NC(=O)[C@@H]1C[C@@H](Oc2cc(-c3ccccn3)nc3ccsc23)CN1C(=O)[C@@H](NC(=O)NC(C)(C)C)C(C)(C)C)C(=O)C(=O)NC1CC1 [Example 5, (2S,4R)-1-((S)-2-(3-tert-butylureido)-3,3-dimethylbutanoyl)-N—((S)-1-(cyclopropylamino)-1,2-dioxohexan-3-yl)-4-(5-(pyridin-2-yl)thieno[3,2-b]pyridin-7-yloxy)pyrrolidine-2-carboxamide]",> 6.00
